Results on six compounds are retold here after paper PMC11229689, “In Vitro Selection of Macrocyclic L-α/D-α/β/γ-Hybrid Peptides Targeting IFN-γ/IFNGR1 Protein–Protein Interaction” (Journal of the American Chemical Society, 2024).

In general, IC50 refers to the point on the concentration scale where inhibition reaches its midpoint. Read a low IC50 as higher potency. As a reminder, the Kd is the equilibrium constant for the complex coming apart.

Like-named read-outs stand apart in the source and are kept apart here. *1 amine or outer side, *2 acyl side, *3 side chain or, on linkers, in order; H or OH if unused. Where a SMILES comes first, the peptide text is derived from it. Bridges are numbered along the chain shown (N, C = ends). [ ]: non-standard residue; d: D form. Acbc(trans-1,3) = O=C([C@H]1C[C@H](N[*:1])C1)[*:2]; Acbc(cis-1,3) = O=C([C@H]1C[C@@H](N[*:1])C1)[*:2]; X1 = O=C([C@@H]1CCC[C@@H]1N[*:1])[*:2]; Orn = NCCC[C@H](N)C(=O)O

Data set [1] can be described thus: Serum stability assay (LC/MS). Conditions: for half-life: human. It counts as in vitro ADME, human. As to the method:
(§1) Binding affinities of IA1 and IA2 against IFNGR1 were evaluated by surface plasmon resonance (SPR) (Table 1 and SI Figure S6A). […] To investigate the contribution of the N-terminal [yVPβ^1RR] motif and β^1 residue in IA1, three scrambled peptides IA1s1–3 and a variant IA1β^14A were synthesized and evaluated. […] We next evaluated inhibitory activities of IA1 and IA2 against the ligand–receptor PPI between IFN-γ and IFNGR1 using AlphaLISA (Table 1 and SI Figure S7).[37] […] We also determined the serum half-lives of IA1 and IA2, considering peptidase resistance as an important factor for therapeutic peptides.[24] A sample peptide and a peptidase-resistant internal standard peptide were coincubated in human serum at 37 °C, and the relative amount of the remaining sample peptide was estimated by LC/MS. […]
10–200 μM synthetic peptide and 5 μM serum-resistant internal standard peptide consisting only of D-amino acids (NH2-PEG5-wstndwstnd-PEG5-CONH2)3 were mixed and incubated in human serum (Cosmo Bio, 12181201) at 37 °C for up to 120 h. At each time point, 4 μL of the mixture was removed and quenched by adding 12 μl methanol. Following centrifugation (15,000 g, 4 °C, 5 min), 10 μL of the supernatant was mixed with 40 μl of 1% (v/v) TFA. Following centrifugation (15,000 g, 4 °C, 5 min), the supernatant was collected for LC/MS analysis, which used a reverse-phase column (ACQUITY UPLC BEH C18, 1.7 μm, 2.1 × 150 mm; Waters) and a Xevo G2-XS QTof system (Waters) with a linear gradient from 1% B to 61% B. Buffer A was water with 0.1% (v/v) formic acid; buffer B was acetonitrile with 0.1% (v/v) formic acid. The percentages of remaining peptides were determined by the peak area integration of the chromatograms. For tandem mass spectrometry, MS/MS spectra were acquired with a 0.2 s scan time, with 10−30 eV collision energy. The obtained LC/MS data was analyzed using MassLynx 4.1 (Waters). […]

Data set [2] has as its target T1, IFN-γ/IFNGR1 protein–protein interaction (Homo sapiens, UniProt P15260).
T1 construct: purchased ACROBiosystems
T1 sequence (P15260 18-245 limits assumed): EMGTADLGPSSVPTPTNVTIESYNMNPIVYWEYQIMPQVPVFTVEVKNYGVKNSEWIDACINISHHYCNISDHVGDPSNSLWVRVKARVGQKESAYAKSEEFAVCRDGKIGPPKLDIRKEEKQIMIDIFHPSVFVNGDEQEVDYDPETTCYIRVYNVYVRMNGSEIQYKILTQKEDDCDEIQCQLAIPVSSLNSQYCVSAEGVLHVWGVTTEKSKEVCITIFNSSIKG
In words: IFNGR1 inhibition assay using AlphaLISA. The data set is classed as biochemical. Conditions: four-parameter dose–response fit, n = 3. As to the method:
IFNGR1 inhibition assay using AlphaLISA
The inhibitory activity of peptides against IFN-γ/IFNGR1 protein–protein interaction (PPI) was determined by AlphaLISA.5 Peptides, proteins, and beads were diluted in AlphaLISA immunoassay buffer (PerkinElmer, AL000C). 3.6 μL of 5 nM Fc-tagged IFNGR1 and 3.6 μL of synthetic peptides were mixed in AlphaPlate-384 Shallow Well (PerkinElmer) and preincubated at 25 °C for 10 min. 3.6 μL of 15 nM biotin-tagged IFN-γ was then added to the mix and incubated at 25 °C for 20 min. 3.6 μL each human IgG acceptor beads (PerkinElmer) and streptavidin donor beads (PerkinElmer) were added to the above mix and incubated at 25 °C for 30 min in dark place. Emission at 615 nm was measured […]
by EnSpire Multimode Plate Reader (PerkinElmer). The fraction of bound IFN-γ/IFNGR1 was calculated by the intensity of emission in the presence of peptide divided by that in the absence of […]
peptide. […]
Puromycin. Normocin, Blasticidin, Zeocin, and Puromycin were excluded when conducting the experiments. To evaluate the cellular activity of peptides, peptide mixtures were added to 50,000 cells/well in a flat-bottom 96-well plate and pre-incubated for 30 min at 37 °C before stimulation.
Subsequently, 1 ng/mL of recombinant IFN-γ (InvivoGen) was added to each well in a final reaction volume of 200 μL, followed by incubation for 20 h at 37 °C. 20 μL of supernatants from the induced cells was added to 180 μL Q U A N T I-Blue TM solution (InvivoGen). After further incubation for 3 h at 37 °C, the expression levels of the secreted embryonic alkaline phosphatase (SEAP) were determined by reading the O.D. at 650 nm on a Tecan M1000 PRO microplate reader (Tecan Group) and normalized to the non-treated well. IC50 value was analyzed by a normalized dose-response curve fitting by using GraphPad Prism 9.
HEK-DualTM IFN-γ cells were used for the cell viability assay. 10,000 cells/well were added to each well in a flat-bottom 96-well plate. After 24 h, peptide mixtures were added to each well in a final volume of 100 μL. After further incubation for 24 h, 10 μL CCK-8 reagent (Dojindo) was added to […]
A general note: Bead proximity is the source of the signal in Alpha formats.

The target of data set [3] is T2, Fc-tagged human IFNGR1 (Homo sapiens, UniProt P15260).
T2 construct: purchased ACROBiosystems
T2 sequence (P15260 18-489): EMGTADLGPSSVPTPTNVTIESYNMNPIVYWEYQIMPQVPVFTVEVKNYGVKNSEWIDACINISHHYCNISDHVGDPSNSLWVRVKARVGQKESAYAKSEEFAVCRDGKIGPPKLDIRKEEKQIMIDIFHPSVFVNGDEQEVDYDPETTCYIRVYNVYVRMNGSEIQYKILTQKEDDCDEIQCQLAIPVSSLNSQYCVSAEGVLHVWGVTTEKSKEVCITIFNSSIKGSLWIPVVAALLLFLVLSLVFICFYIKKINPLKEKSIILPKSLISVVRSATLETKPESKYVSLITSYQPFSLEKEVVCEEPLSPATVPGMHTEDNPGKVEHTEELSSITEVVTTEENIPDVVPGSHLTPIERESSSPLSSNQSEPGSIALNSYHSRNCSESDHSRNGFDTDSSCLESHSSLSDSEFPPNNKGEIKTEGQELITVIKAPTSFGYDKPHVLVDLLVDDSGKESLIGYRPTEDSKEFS
In words: Binding kinetics and affinity to IFNGR1 by surface plasmon resonance (SPR). Conditions: SPR, 25 °C, 1:1 binding model; for Kd: read-out: KD; for kon: single-cycle kinetics, read-out: ka. As to the method:
as §1
Evaluation of binding affinity of peptides by surface plasmon resonance The binding affinities of selected peptides and IFNGR1 were analyzed by surface plasmon resonance (SPR) using a Biacore T200 instrument (Cytiva) at 25 °C with the following running buffer: 10 mM Tris-HCl (pH 8.0), 150 mM NaCl, 0.05% (v/v) Tween 20 , and 0.1% (v/v) DMSO. Fc-tagged IFNGR1 was immobilized on a series S sensor chip protein G (Cytiva) to a surface density of 1,200–1,600 response units following the immobilization protocols provided by Cytiva. The kinetic constants were determined by a single-cycle kinetics method by the injection of five different concentrations (twofold dilution series) of each peptide at a flow rate of 30 μL/min. The resulting sensorgrams were fitted to the standard 1:1 interaction model and analyzed using Biacore evaluation software. […]

Where [4] appears, read: human serum, 37 °C, LC/MS, relative to internal standard peptide, n = 3, read-out: half-life in human serum (t1/2) (converted).
Where [5] appears, read: serum, half-life in human serum (t1/2).

For the compound `CC(C)[C@@H]1NC(=O)[C@@H](Cc2ccc(O)cc2)NC(=O)CSC[C@H](C(N)=O)NC(=O)[C@H](CC(N)=O)NC(=O)[C@H](CO)NC(=O)[C@H](CCCNC(=N)N)NC(=O)[C@H](CO)NC(=O)[C@H]2C[C@@H](C2)NC(=O)[C@H](CC(N)=O)NC(=O)[C@H]([C@@H](C)O)NC(=O)[C@H](Cc2c[nH]cn2)NC(=O)[C@H](CCCNC(=N)N)NC(=O)[C@H](CCCNC(=N)N)NC(=O)[C@@H]2CCC[C@@H]2NC(=O)[C@@H]2CCCN2C1=O` [IA2, ^AcyVPβ^1RRHTNγ^2SRSNc-NH2] ({CH2CO}-[dY]VP[X1]RRHTN[Acbc(trans-1,3)]SRSN[dC]-NH2; thioether N-15), the half-life in data set [1] (setting [4]) was greater than 156 min. Moreover, half-maximal inhibition in data set [2] (IC50) was put at 330 ± 20 nM. Further, in data set [3], the Kd was determined as 150 ± 40 nM and the kon is 120000 ± 50000 M⁻¹ s⁻¹.

`CC(C)[C@@H]1NC(=O)[C@@H](Cc2ccc(O)cc2)NC(=O)CSC[C@H](C(N)=O)NC(=O)[C@H](CCCN)NC(=O)[C@H](CO)NC(=O)[C@H](CCCN)NC(=O)[C@H](Cc2c[nH]cn2)NC(=O)CNC(=O)[C@H]2C[C@H](C2)NC(=O)[C@H](Cc2c[nH]cn2)NC(=O)[C@H](CC(N)=O)NC(=O)[C@H](CCCNC(=N)N)NC(=O)[C@H](CCCNC(=N)N)NC(=O)[C@@H]2CCC[C@@H]2NC(=O)[C@H](C)NC1=O` [IB1Orn, ^AcyVAβ^1RRNHγ^1GHOSOc-NH2] ({CH2CO}-[dY]VA[X1]RRNH[Acbc(cis-1,3)]GH[Orn]S[Orn][dC]-NH2; thioether N-15): the half-life in data set [1] (setting [5]) was 1980 ± 60 min. The compound also registered an IC50 in data set [2] of 17 ± 3 nM. Further, in data set [3], the Kd came out at 11 ± 3 nM and the kon was 1.4e+06 ± 900000 M⁻¹ s⁻¹.

On to `CC(C)[C@@H]1NC(=O)[C@@H](Cc2ccc(O)cc2)NC(=O)CSC[C@H](C(N)=O)NC(=O)[C@H](CCCNC(=N)N)NC(=O)[C@H](CO)NC(=O)[C@H](CCCNC(=N)N)NC(=O)[C@H](Cc2c[nH]cn2)NC(=O)CNC(=O)[C@H](C)NC(=O)[C@H](Cc2c[nH]cn2)NC(=O)[C@H](CC(N)=O)NC(=O)[C@H](CCCNC(=N)N)NC(=O)[C@H](CCCNC(=N)N)NC(=O)[C@@H]2CCC[C@@H]2NC(=O)[C@H](C)NC1=O` [IB1γ^19A, ^AcyVAβ^1RRNHA GHRSRc-NH2] ({CH2CO}-[dY]VA[X1]RRNHAGHRSR[dC]-NH2; thioether N-15), for which, in data set [1] (setting [4]), the half-life was 10.2 ± 0.6 min. Also, the IC50 in data set [2] was determined as 11 ± 4 nM. Also, in data set [3], the Kd turned out to be 9.5 ± 4 nM and the kon amounted to 110000 ± 20000 M⁻¹ s⁻¹.

On to `CC(C)[C@@H]1NC(=O)[C@@H](Cc2ccc(O)cc2)NC(=O)CSC[C@H](C(N)=O)NC(=O)[C@H](CCCNC(=N)N)NC(=O)[C@H](CO)NC(=O)[C@H](CCCNC(=N)N)NC(=O)[C@H](Cc2c[nH]cn2)NC(=O)CNC(=O)[C@H]2C[C@@H](C2)NC(=O)[C@H](Cc2c[nH]cn2)NC(=O)[C@H](CC(N)=O)NC(=O)[C@H](CCCNC(=N)N)NC(=O)[C@H](CCCNC(=N)N)NC(=O)[C@@H]2CCC[C@@H]2NC(=O)[C@H](C)NC1=O` [IB1γ^19γ^2, ^AcyVAβ^1RRNHγ^2GHRSRc-NH2] ({CH2CO}-[dY]VA[X1]RRNH[Acbc(trans-1,3)]GHRSR[dC]-NH2; thioether N-15), for which the half-life in data set [1] (setting [4]) was 46.2 ± 1.2 min. The IC50 in data set [2] amounted to 550 ± 30 nM. In addition, in data set [3], the Kd turned out to be 47 ± 15 nM and the kon was 250000 ± 250000 M⁻¹ s⁻¹.

Take `CC(C)[C@@H]1NC(=O)[C@@H](Cc2ccc(O)cc2)NC(=O)CSC[C@H](C(N)=O)NC(=O)[C@H](C)NC(=O)[C@H](Cc2c[nH]cn2)NC(=O)[C@H](CCCNC(=N)N)NC(=O)[C@H](CCCNC(=N)N)NC(=O)CNC(=O)[C@H]2C[C@H](C2)NC(=O)[C@H](Cc2c[nH]cn2)NC(=O)[C@H](CC(N)=O)NC(=O)[C@H](CCCNC(=N)N)NC(=O)[C@H](CCCNC(=N)N)NC(=O)[C@@H]2CCC[C@@H]2NC(=O)[C@H](C)NC1=O` [IB2, ^AcyVAβ^1RRNHγ^1GRRHAc-NH2] ({CH2CO}-[dY]VA[X1]RRNH[Acbc(cis-1,3)]GRRHA[dC]-NH2; thioether N-15): the “half-life in human serum (t1/2)” value in data set [1] (human serum, 37 °C, LC/MS, relative to internal standard peptide, n = 3) came out at 1.3 ± 0.1 h. In addition, in data set [1] (setting [4]), the half-life was less than 78 min. In data set [2], this compound returned an IC50 of 79 ± 11 nM. For the same compound, in data set [3], the Kd was found to be 31 ± 8 nM and the kon was found to be 200000 ± 90000 M⁻¹ s⁻¹.

With `CC(C)[C@@H]1NC(=O)[C@@H](Cc2ccc(O)cc2)NC(=O)CSC[C@H](C(N)=O)NC(=O)[C@H](C)NC(=O)[C@H](CO)NC(=O)[C@H](CCCN)NC(=O)[C@H](CCCN)NC(=O)CNC(=O)[C@H]2C[C@H](C2)NC(=O)[C@H](Cc2c[nH]cn2)NC(=O)[C@H](CC(N)=O)NC(=O)[C@H](CCCNC(=N)N)NC(=O)[C@H](CCCNC(=N)N)NC(=O)[C@@H]2CCC[C@@H]2NC(=O)[C@H](C)NC1=O` [IB3Orn, ^AcyVAβ^1RRNHγ^1GOOSAc-NH2] ({CH2CO}-[dY]VA[X1]RRNH[Acbc(cis-1,3)]G[Orn][Orn]SA[dC]-NH2; thioether N-15), the half-life in data set [1] (setting [5]) was 2520 ± 120 min. The concentration for half-maximal inhibition (IC50) in data set [2] worked out at 70 ± 4 nM. Further, in data set [3], the dissociation constant Kd was 34 ± 5 nM and the kon was 950000 ± 680000 M⁻¹ s⁻¹.
